Experimental data taken from patent US9521845B2, “Beta-lactones as antibacterial agents” (LUDWIG-MAXIMILIANS-UNIVERSITÄT-MÜNCHEN, priority 2008, dated 2016).

How the values were obtained:
[1] = system: β-Ketoacyl acyl carrier protein synthase II (KAS II); test: ABPP labeling of bacterial proteomes, KAS II; assay type: binding, L. welshimeri, B. subtilis; details: 50 μM probe, FIGS. 9A and 9B
Description: The library of beta-lactones to be tested comprised compounds with aliphatic or aromatic substitutions varying in length and branching. To evaluate the target selectivity, the beta-lactones were screened against several gram-positive and gram-negative bacterial proteomes including Pseudomonas putida, Listeria welshimeri, Bacillus licheniformis, Bacillus subtilis and Escherichia coli, which are phylogenetically related to pathogenic strains. In addition, mouse liver cytosol was included as an eukaryotic reference proteome. Initial labeling experiments were carried out by adding individual probes at 50 μM concentration to the proteome which is sufficient to achieve full saturation of most targets. […] As an example, labeling of L. welshimeri cytosolic and membrane proteomes as well as B. subtilis cytosolic proteome with a subset of the most complementary probes is shown in FIGS. 9A and 9B. […] Most of the targeted proteins were of low abundance as shown by the direct comparison of the relative intensities observed with Coomassie staining vs. fluorescence scanning (FIG. 11).
Proteome samples were adjusted to a final concentration of 1 mg protein/mL by dilution in PBS prior to probe labeling. […]

[2] = target: T1, Aldehyde dehydrogenase B (ADB) (Escherichia coli, UniProt P37685); test: ABPP labeling of E. coli cytosol; assay type: binding; details: 100 nM probe concentration, no other off targets
T1 construct: endogenous in cells; host or cells: Escherichia coli K12 lysate, cytosol fraction
Procedure: To estimate the strength of probe interactions with proteins in the proteome, we compared the reactivity profiles of selected beta-lactones across a broad concentration range from 10 μM to 5 nM.
Proteome samples were adjusted to a final concentration of 1 mg protein/mL by dilution in PBS prior to probe labeling. Experiments for visualization by 1D SDS-PAGE were carried out in 43 μL total volume and those for affinity enrichment in 1892 μL total volume, such that once CC reagents were added, the total reaction volume was 50 μL and 2 mL, respectively. Reactions were initiated by addition of the probe and allowed to incubate for 60 min at room temperature. For heat controls the proteome was denatured with 1 μL of 43% SDS at 95° C. for 6 min and cooled to room temperature before the probe was applied. Following incubation, reporter tagged-azide reagents (13 μM rhodamine-azide for analytical or 20 μM rhodamine-biotin-azide for preparative scale) were added followed by 1 mM TCEP and 100 μM ligand. Samples were gently vortexed and the cycloaddition initiated by the addition of 1 mM CuSO4. The reactions were incubated at room temperature for 1 h (Speers, J. Amer. Chem. Soc. 125 (2003), 4686).

ClpP = target: T2, ClpP (Listeria monocytogenes serovar 1/2a, UniProt Q9RQI6); test: In vivo labeling of Listeria proteomes; assay type: cell-based; details: living L. monocytogenes EGDe, cytosol, 2 h incubation
T2 construct: endogenous in cells; host or cells: living Listeria monocytogenes EGDe, stationary phase
Procedure: For analytical and preparative in vivo studies, Listeria were grown to stationary phase and harvested by centrifugation at 4,000 rpm 1 h after entrance in the stationary phase (1.5 ml for analytical and 15 ml for preparative studies). The cell pellets were washed once with PBS and resuspended in 100 μL and 500 μL PBS for analytical and preparative studies, respectively. The cell suspensions were incubated for 2 h with varying concentrations of probe at room temperature. Probes were applied from DMSO stocks whereby DMSO never exceeded 2% in the final solution. For preparative experiments, 50 μM of the probes was added to the cells resuspended in PBS. After incubation, the cells were washed thoroughly three times with PBS to remove excess probe from the supernatant. Subsequently the cells were lysed in 100 μL (500 μL) PBS by sonication with a Bandelin Sonopuls with 3×20 sec. pulsed at 70% max. power. For analytical experiments 44 μL proteome were used to append a reporter tag via CC, such that once CC reagents were added, the total reaction volume was 50 μL. In preparative purposes the total volume of 500 μL it was consumed per experiment. Reporter tagged-azide reagents (13 μM rhodamine-azide for analytical or 20 μM rhodamine-biotin-azide for preparative scale) were added followed by 1 mM TCEP and 100 μM ligand. Samples were gently vortexed and the cycloaddition initiated by the addition of 1 mM CuSO4. The reactions were incubated at room temperature for 1 h. For analytical gel electrophoresis, 50 μL 2×SDS loading buffer were added and 50 μL applied on the gel. Fluorescence was recorded in a Fujifilm Las-3000 Fluoreszenz Darkbox with a Fujinon VRF 43LMD Lens, 605DF40 filter and 520 nm EPI excitation wavelength.

[3] = system: proteolysis abilities of Staphylococcus aureus; test: Milk agar plate-based proteolysis assay; assay type: cell-based
Procedure: FIG. 6: Milk agar plate-based assay illustrating that beta-lactones have an effect on the proteolysis abilities of Staphylococcus aureus. 2.5 μL of S. aureus LB dilution (OD600=0.13 corresponding to approx. 1×10^8 cfu/ml) and 2.5 μL DMSO/beta-lactone in DMSO were applied on Whatman Cards placed on 1% skim milk LB agar plates and incubated at 37° C. over night. A) Direct comparison of beta-lactones as shown in FIG. 2 at a total amount of 250 nmol applied on Whatman Cards. B) Dose down with beta-lactones D3, E2 and G2 at applied concentrations of 100 mM, 50 mM, 25 mM, 12.5 mM, 6.25 mM and 0 mM (corresponding to total amounts of 250 nmol, 125 nmol, 62.5 nmol, 31.3 nmol, 15.6 nmol and 0 nmol, respectively). C) Proteolysis zone size plotted against the total amount of the respective beta-lactone.
2.5 μL of S. aureus LB dilution (OD600=0.13 corresponding to approx. 1×10^8 cfu/ml) and 2.5 μL DMSO/beta-lactone in DMSO were applied on Whatman Cards placed on 1% skim milk LB agar plates and incubated at 37° C. over night. FIG. 6A directly compares the β-lactones at a total amount of 250 nmol applied on Whatman Cards. […] For D3 and E2 almost no proteolysis is observed down to a total amount of 125 nmol of the respective beta-lactone. FIG. 6C illustrates that the proteolysis zone size plotted against the total amount of beta-lactone visualizes the strong effects particularly of D3 and E2.

[4] = system: extracellular DNase of S. aureus; test: DNase assay using DNA containing agar plates; assay type: cell-based, Staphylococcus aureus; details: 250 nmol
Description: FIG. 4: Agar plate-based virulence assays.
A dose down in FIG. 5 indicates the different potencies of structurally diverse ClpP inhibitors for E2, G2 and D3. […] Extracellular DNase also is part of the S. aureus virulence factors. Its purpose is to destroy the hosts DNA and provide a nutritional source for S. aureus.

T2 sequence (Q9RQI6 whole entry): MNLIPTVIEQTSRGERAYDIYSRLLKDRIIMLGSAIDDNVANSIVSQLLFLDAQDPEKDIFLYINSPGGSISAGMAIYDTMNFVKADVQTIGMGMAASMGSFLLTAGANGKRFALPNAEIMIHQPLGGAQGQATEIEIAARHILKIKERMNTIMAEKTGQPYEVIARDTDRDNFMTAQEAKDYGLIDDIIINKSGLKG
T1 sequence (P37685 whole entry): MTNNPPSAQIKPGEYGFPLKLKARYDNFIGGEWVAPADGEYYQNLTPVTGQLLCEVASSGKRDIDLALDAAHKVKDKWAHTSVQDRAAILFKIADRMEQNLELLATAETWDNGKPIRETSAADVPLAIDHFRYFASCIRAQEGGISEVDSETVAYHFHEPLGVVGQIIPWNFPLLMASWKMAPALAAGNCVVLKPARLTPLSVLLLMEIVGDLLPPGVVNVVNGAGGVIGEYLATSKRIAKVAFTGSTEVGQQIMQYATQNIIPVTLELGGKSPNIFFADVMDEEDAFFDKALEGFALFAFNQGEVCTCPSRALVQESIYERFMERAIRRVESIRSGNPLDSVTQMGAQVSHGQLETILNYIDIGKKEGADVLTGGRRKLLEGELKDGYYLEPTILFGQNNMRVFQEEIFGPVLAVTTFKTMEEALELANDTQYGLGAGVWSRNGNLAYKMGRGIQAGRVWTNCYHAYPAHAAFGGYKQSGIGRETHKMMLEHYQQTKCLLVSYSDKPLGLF

C#CCCCC1OC(=O)C1CCCCCCCC=C (stereo not drawn) [D3, trans-3-(8-nonen-1-yl)-4-(4-pentyn-1-yl)oxetan-2-one]
KAS II labeling [1]: labeled
ADB labeling preference [2]: strong preference
ClpP labeling (probe potency ranking) (ClpP): most potent probes
total amount down to which almost no proteolysis is observed ([3]; dose down 250-15.6 nmol): 125 nmol
proteolytic activity of S. aureus ([3]; total amount of 250 nmol applied on Whatman Cards, 1% skim milk LB agar, 37° C. over night): strongly reduce
amount of extracellular DNase [4]: effect
